Experimental data as given in ChEMBL document CHEMBL1138190, “Synthesis and antibacterial activity of novel C12 vinyl ketolides” (J Med Chem, 2006).
Converted amounts (≈) assume the structure as drawn.

Experiments:
Type in all cases: functional
[1] = system: Staphylococcus epidermidis; assay: Antibacterial activity against Staphylococcus epidermidis 14990
Staphylococcus aureus [2] = assay: Antibacterial activity against Staphylococcus aureus 29213
Enterococcus faecalis [3] = assay: Antibacterial activity against Enterococcus faecalis 29212
Streptococcus pneumoniae [4] = assay: Antibacterial activity against Streptococcus pneumoniae 280-962
[5] = system: Staphylococcus epidermidis; assay: Antibacterial activity against Staphylococcus epidermidis f50654
Enterococcus faecalis [6] = assay: Antibacterial activity against Enterococcus faecalis bc11148-2
Streptococcus pneumoniae [7] = assay: Antibacterial activity against Streptococcus pneumoniae Mef 5654
Streptococcus pneumoniae [8] = assay: Antibacterial activity against Streptococcus pneumoniae Erm 6849
Haemophilus influenzae [9] = assay: Antibacterial activity against Haemophilus influenzae 2762
Streptococcus pneumoniae [10] = assay: Antibacterial activity against Streptococcus pneumoniae 49619
Streptococcus pneumoniae [11] = assay: Antibacterial activity against Streptococcus pneumoniae 297-749
Haemophilus influenzae [12] = assay: Antibacterial activity against Haemophilus influenzae 49247
Streptococcus pyogenes = assay: Antibacterial activity against Streptococcus pyogenes 8668
Streptococcus pneumoniae [13] = assay: Antibacterial activity against Streptococcus pneumoniae Mef S 3427
Staphylococcus aureus [14] = assay: Antibacterial activity against Staphylococcus aureus 33591

MIC [1]	MIC (Staphylococcus aureus [2])	MIC (Enterococcus faecalis [3])	MIC (Streptococcus pneumoniae [4])	MIC [5]	MIC (Enterococcus faecalis [6])	MIC (Streptococcus pneumoniae [7])	MIC (Streptococcus pneumoniae [8])	MIC (Haemophilus influenzae [9])	MIC (Streptococcus pneumoniae [10])	MIC (Streptococcus pneumoniae [11])	MIC (Haemophilus influenzae [12])	MIC (Streptococcus pyogenes)	MIC (Streptococcus pneumoniae [13])	MIC (Staphylococcus aureus [14])	SMILES
0.2 µg/mL (≈ 0.235 µM)	0.2 µg/mL (≈ 0.235 µM)	0.1 µg/mL (≈ 0.118 µM)	≤ 0.05 µg/mL	0.2 µg/mL (≈ 0.235 µM)	0.2 µg/mL (≈ 0.235 µM)	0.4 µg/mL (≈ 0.471 µM)	≤ 0.05 µg/mL	3.13 µg/mL (≈ 3.68 µM)	≤ 0.05 µg/mL	≤ 0.05 µg/mL	6.25 µg/mL (≈ 7.35 µM)	≤ 0.05 µg/mL	0.1 µg/mL (≈ 0.118 µM)	> 50 µg/mL	C=C[C@]12OC(=O)N(CCN(C)Cc3ccnc(-c4cccnc4)c3)[C@@H]1[C@@H](C)C(=O)[C@H](C)C[C@@](C)(OC)[C@H](O[C@@H]1O[C@H](C)C[C@H](N(C)C)[C@H]1O)[C@@H](C)C(=O)[C@@H](C)C(=O)O[C@@H]2CC
0.1 µg/mL (≈ 0.117 µM)	0.2 µg/mL (≈ 0.234 µM)	0.1 µg/mL (≈ 0.117 µM)	≤ 0.05 µg/mL	0.2 µg/mL (≈ 0.234 µM)	0.4 µg/mL (≈ 0.468 µM)	0.78 µg/mL (≈ 0.912 µM)	0.2 µg/mL (≈ 0.234 µM)	3.13 µg/mL (≈ 3.66 µM)	≤ 0.05 µg/mL	≤ 0.05 µg/mL	6.25 µg/mL (≈ 7.31 µM)	≤ 0.05 µg/mL	0.1 µg/mL (≈ 0.117 µM)	> 50 µg/mL	C=C[C@]12OC(=O)N(CCN(C)Cc3ccc(-c4cccnc4)s3)[C@@H]1[C@@H](C)C(=O)[C@H](C)C[C@@](C)(OC)[C@H](O[C@@H]1O[C@H](C)C[C@H](N(C)C)[C@H]1O)[C@@H](C)C(=O)[C@@H](C)C(=O)O[C@@H]2CC
0.1 µg/mL (≈ 0.12 µM)	0.2 µg/mL (≈ 0.241 µM)	0.1 µg/mL (≈ 0.12 µM)	≤ 0.05 µg/mL	0.1 µg/mL (≈ 0.12 µM)	1.56 µg/mL (≈ 1.88 µM)	0.78 µg/mL (≈ 0.938 µM)	3.13 µg/mL (≈ 3.76 µM)	0.78 µg/mL (≈ 0.938 µM)	≤ 0.05 µg/mL	≤ 0.05 µg/mL	3.13 µg/mL (≈ 3.76 µM)	≤ 0.05 µg/mL	0.1 µg/mL (≈ 0.12 µM)	> 50 µg/mL	C=C[C@]12OC(=O)N(CCCCn3cc(Cl)c4ncccc43)[C@@H]1[C@@H](C)C(=O)[C@H](C)C[C@@](C)(OC)[C@H](O[C@@H]1O[C@H](C)C[C@H](N(C)C)[C@H]1O)[C@@H](C)C(=O)[C@@H](C)C(=O)O[C@@H]2CC
0.1 µg/mL (≈ 0.119 µM)	0.1 µg/mL (≈ 0.119 µM)	0.2 µg/mL (≈ 0.238 µM)	≤ 0.05 µg/mL	0.1 µg/mL (≈ 0.119 µM)	6.25 µg/mL (≈ 7.45 µM)	0.78 µg/mL (≈ 0.93 µM)	3.13 µg/mL (≈ 3.73 µM)	0.2 µg/mL (≈ 0.238 µM)	≤ 0.05 µg/mL	≤ 0.05 µg/mL	3.13 µg/mL (≈ 3.73 µM)	≤ 0.05 µg/mL	0.2 µg/mL (≈ 0.238 µM)	> 50 µg/mL	C=C[C@]12OC(=O)N(CCCCn3ccc4nc(C(C)=O)ccc43)[C@@H]1[C@@H](C)C(=O)[C@H](C)C[C@@](C)(OC)[C@H](O[C@@H]1O[C@H](C)C[C@H](N(C)C)[C@H]1O)[C@@H](C)C(=O)[C@@H](C)C(=O)O[C@@H]2CC
0.1 µg/mL (≈ 0.119 µM)	0.1 µg/mL (≈ 0.119 µM)	≤ 0.05 µg/mL	≤ 0.05 µg/mL	0.1 µg/mL (≈ 0.119 µM)	1.56 µg/mL (≈ 1.85 µM)	0.4 µg/mL (≈ 0.476 µM)	1.56 µg/mL (≈ 1.85 µM)	1.56 µg/mL (≈ 1.85 µM)	≤ 0.05 µg/mL	≤ 0.05 µg/mL	3.13 µg/mL (≈ 3.72 µM)	≤ 0.05 µg/mL	≤ 0.05 µg/mL	> 50 µg/mL	C=C[C@]12OC(=O)N(CCCCc3cnc(-c4cccnc4)s3)[C@@H]1[C@@H](C)C(=O)[C@H](C)C[C@@](C)(OC)[C@H](O[C@@H]1O[C@H](C)C[C@H](N(C)C)[C@H]1O)[C@@H](C)C(=O)[C@@H](C)C(=O)O[C@@H]2CC
0.2 µg/mL (≈ 0.236 µM)	0.2 µg/mL (≈ 0.236 µM)	0.1 µg/mL (≈ 0.118 µM)	≤ 0.05 µg/mL	0.1 µg/mL (≈ 0.118 µM)	0.1 µg/mL (≈ 0.118 µM)	0.78 µg/mL (≈ 0.919 µM)	0.1 µg/mL (≈ 0.118 µM)	1.56 µg/mL (≈ 1.84 µM)	≤ 0.05 µg/mL	≤ 0.05 µg/mL	6.25 µg/mL (≈ 7.36 µM)	≤ 0.05 µg/mL	0.1 µg/mL (≈ 0.118 µM)	> 50 µg/mL	C=C[C@]12OC(=O)N(CCN(C)Cc3cccc(-c4cccnc4)c3)[C@@H]1[C@@H](C)C(=O)[C@H](C)C[C@@](C)(OC)[C@H](O[C@@H]1O[C@H](C)C[C@H](N(C)C)[C@H]1O)[C@@H](C)C(=O)[C@@H](C)C(=O)O[C@@H]2CC
0.1 µg/mL (≈ 0.125 µM)	0.2 µg/mL (≈ 0.251 µM)	0.1 µg/mL (≈ 0.125 µM)	≤ 0.05 µg/mL	0.4 µg/mL (≈ 0.501 µM)	0.78 µg/mL (≈ 0.977 µM)	1.56 µg/mL (≈ 1.95 µM)	3.13 µg/mL (≈ 3.92 µM)	0.78 µg/mL (≈ 0.977 µM)	≤ 0.05 µg/mL	≤ 0.05 µg/mL	1.56 µg/mL (≈ 1.95 µM)	≤ 0.05 µg/mL	0.2 µg/mL (≈ 0.251 µM)	> 50 µg/mL	C=C[C@]12OC(=O)N(CCCCn3cnc4ncccc43)[C@@H]1[C@@H](C)C(=O)[C@H](C)C[C@@](C)(OC)[C@H](O[C@@H]1O[C@H](C)C[C@H](N(C)C)[C@H]1O)[C@@H](C)C(=O)[C@@H](C)C(=O)O[C@@H]2CC

SMILES	MIC [1]	MIC (Staphylococcus aureus [2])	MIC (Enterococcus faecalis [3])	MIC (Streptococcus pneumoniae [4])	MIC [5]	MIC (Enterococcus faecalis [6])	MIC (Streptococcus pneumoniae [7])	MIC (Streptococcus pneumoniae [8])	MIC (Haemophilus influenzae [9])	MIC (Streptococcus pneumoniae [10])	MIC (Streptococcus pneumoniae [11])	MIC (Haemophilus influenzae [12])	MIC (Streptococcus pyogenes)	MIC (Streptococcus pneumoniae [13])	MIC (Staphylococcus aureus [14])
CC[C@H]1OC(=O)[C@H](C)[C@@H](O[C@H]2C[C@@](C)(OC)[C@@H](O)[C@H](C)O2)[C@H](C)[C@@H](O[C@@H]2O[C@H](C)C[C@H](N(C)C)[C@H]2O)[C@](C)(OC)C[C@@H](C)C(=O)[C@H](C)[C@@H](O)[C@]1(C)O [CLARITHROMYCIN]	0.2 µg/mL (≈ 0.267 µM)	0.4 µg/mL (≈ 0.535 µM)	0.78 µg/mL (≈ 1.04 µM)	≤ 0.05 µg/mL	0.2 µg/mL (≈ 0.267 µM)	> 50 µg/mL	6.25 µg/mL (≈ 8.36 µM)	> 50 µg/mL	0.78 µg/mL (≈ 1.04 µM)	≤ 0.05 µg/mL	≤ 0.05 µg/mL	6.25 µg/mL (≈ 8.36 µM)	≤ 0.05 µg/mL	3.13 µg/mL (≈ 4.18 µM)	> 50 µg/mL
